Assay [1] in a line: Inhibition of trypsin.
Assay [2] in a line: Inhibition of chymotrypsin at 45 ug/mL.

SMILES strings stand for the structures. ≈ marks a conversion by molar mass, not a printed value. Calls of active or inactive are those of the source. The rule behind the calls is not given here.

In assay [1], `CC[C@H](C)[C@H](NC(=O)N[C@@H]1CCCCNC(=O)[C@H](Cc2ccccc2)NC(=O)[C@H](C)N(C)C(=O)[C@H](CCc2ccccc2)NC(=O)[C@H]([C@@H](C)CC)NC1=O)C(=O)O` [Schizopeptin 791] displayed an IC50 of 45 µg/mL (≈ 56.8 µM). Moreover, the result in assay [2] was inactive.

As a reminder, the IC50 is the concentration at which inhibition is half-maximal.

The values are drawn from ChEMBL document CHEMBL1150616, “Schizopeptin 791, a new anabeanopeptin-like cyclic peptide from the cyanobacterium Schizothrix sp” (J Nat Prod, 2002).
